# Columns and labels:
# [1] = system: Glucokinase known as hexokinase IV (human GK isoform 1, pancreas form and human GK isoform 2, liver form); test: Glucokinase enzymatic activity assay (G6PDH-coupled, NADH absorbance at 340 nm); type: biochemical; conditions: 5 mM glucose, 1 mM ATP, 37 nM GK, 10 min at room temperature
# Outline: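 His-tagged human GK isoform 1 (pancreas) or 2 (liver), E. coli-expressed and Ni-purified, 37 nM, with 5 mM glucose, 1 mM ATP, 1 mM NAD and G6PDH in 25 mM Hepes/KCl, 2 mM MgCl2, 1 mM DTT. Ran 10 min at room temperature, read as NADH at 340 nm. AC1.5 is the compound concentration giving 1.5-fold activity.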
# male C57BL/6 mice = test: Blood glucose lowering abilities after single oral administration in male C57BL/6 mouse; type: in vivo; conditions: 30 mg/kg single oral dose, fed ad libitum
# Method: The glucokinase activators according to the present invention were orally administered in a single dose in the amount of 30 mg/kg body weight to male C57BL/6 mice for 24 h. The media were selected depending on their solubilities from distilled water, pH 1.2 HCl buffer solution, 0.5% methyl cellulose distilled water solution, 10% Gelucire/pH 1.2 HCl buffer solution (1/1). The glucokinase activators were dissolved in the selected media to the medium volume of 0.1 ml/10 g body weight on the basis of the body weight measured on the day of experiment.
# Blood glucose was measured by cutting the tail vein before 1 h (time=−1) from the measurement of blood glucose, collecting blood from the tail vein at immediately before the administration of the glucokinase activator (time=0), and at 1, 2, 4, 8, 12, 24 h after administration, loading on the automatic glucometer (Accu-Chek® Active, Roche, USA), dropping 5 μl of the blood to a yellow pad of the Accu-Chek® Active glucose strip, and recording the measured value.
# Mice involved in the experiment were divided into groups (n=10, in the case of media group n=4) on one day before the experiment so that each group has uniform average and standard deviation for blood glucose after 4 hour fasting. Mice were fed ad libitum.
# The blood glucose lowering abilities in % of the representative compounds with respect to the 100% of media control were shown in the following Table 2.
Structure (SMILES),AC1.5 (the compound concentration at which the enzymatic activity is increased by 1.5 times) [1] [nM],Hypoglycemic ability (% medium): blood glucose AUC for 24 h with respect to 100% of media control (male C57BL/6 mice; medium: distilled water) [%],Hypoglycemic ability (% medium): blood glucose AUC for 24 h with respect to 100% of media control (male C57BL/6 mice; medium: 0.5% methyl cellulose distilled water solution) [%]
"O=C(O)C[C@@H]1CSC(c2cc3cc(Cl)cc(NC4CCCC4)c3[nH]2)=N1 [Example 27, [(R)-2-(5-chloro-7-cyclopentylamino-1H-indol-2-yl)-4,5-dihydro-thiazol-4-yl]acetic acid]",4,75,
"O=C(O)C[C@@H]1CSC(c2cc3cc(Br)cc(NC4CCCC4)c3[nH]2)=N1 [Example 33, [(R)-2-(5-bromo-7-cyclopentylamino-1H-indol-2-yl)-4,5-dihydro-thiazol-4-yl]acetic acid]",,81,
"O=C(O)C[C@@H]1CSC(c2cc3cc(F)cc(NC4CCCC4)c3[nH]2)=N1 [Example 37, [(R)-2-(7-cyclopentylamino-5-fluoro-1H-indol-2-yl)-4,5-dihydro-thiazol-4-yl]acetic acid]",,67,
"CCOC(=O)C[C@@H]1CSC(c2cc3cc(F)cc(NC4CCCC4)c3[nH]2)=N1 [Example 38, [(R)-2-(7-cyclopentylamino-5-fluoro-1H-indol-2-yl)-4,5-dihydro-thiazol-4-yl]acetic acid ethyl ester]",18,,71
"O=C(O)C[C@@H]1CSC(c2cc3cccc(NC4CCCC4)c3[nH]2)=N1 [Example 42, [(R)-2-(7-cyclopentylamino-1H-indol-2-yl)-4,5-dihydro-thiazol-4-yl]acetic acid]",,57,
"CCOc1cc(NC2CCCC2)c2[nH]c(C3=N[C@H](CC(=O)O)CS3)cc2c1 [Example 52, [(R)-2-(7-cyclopentylamino-5-ethoxy-1H-indol-2-yl)-4,5-dihydro-thiazol-4-yl]acetic acid]",20,62,
"O=C(O)C[C@@H]1CSC(c2cc3cc(Oc4ccccc4)cc(NC4CCCC4)c3[nH]2)=N1 [Example 54, [(R)-2-(7-cyclopentylamino-5-phenoxy-1H-indol-2-yl)-4,5-dihydro-thiazol-4-yl]-acetic acid]",18,52,
"Cc1cc(NC2CCCC2)c2[nH]c(C3=N[C@H](CC(=O)O)CS3)cc2c1 [Example 61, [(R)-2-(7-cyclopentylamino-5-methyl-1H-indol-2-yl)-4,5-dihydro-thiazol-4-yl]-acetic acid]",11,54,
"Clc1cc(NC2CCCC2)c2[nH]c(C3=N[C@H](CCN4CCNCC4)CS3)cc2c1 [Example 96, {5-chloro-2-[(R)-4-(2-piperazin-1-yl-ethyl)-4,5-dihydro-thiazol-2-yl]-1H-indol-7-yl}-cyclopentyl-amine]",5,81,
"CC(=O)N1CCN(CCC[C@@H]2CSC(c3cc4cc(Cl)cc(NC5CCCC5)c4[nH]3)=N2)CC1 [Example 155, 1-(4-{3-[(R)-2-(5-chloro-7-cyclopentylamino-1H-indol-2-yl)-4,5-dihydro-thiazol-4-yl]-propyl}-piperazin-1-yl)-ethanone]",12,,
"Clc1cc(NC2CCCC2)c2[nH]c(C3=N[C@H](CCCN4CCOCC4)CS3)cc2c1 [Example 156, {5-chloro-2-[(R)-4-(3-morpholin-4-yl-propyl)-4,5-dihydro-thiazol-2-yl]-1H-indol-7-yl}-cyclopentyl-amine]",22,,
"CCOC(=O)CC[C@@H]1CSC(c2cc3cc(C)cc(NC4CCCC4)c3[nH]2)=N1 [Example 157, 3-[(R)-2-(7-cyclopentylamino-5-methyl-1H-indol-2-yl)-4,5-dihydro-thiazol-4-yl]-propionic acid ethyl ester]",24,,
"CCOC(=O)CC[C@@H]1CSC(c2cc3cc(F)cc(NC4CCCC4)c3[nH]2)=N1 [Example 160, 3-[(R)-2-(7-cyclopentylamino-5-fluoro-1H-indol-2-yl)-4,5-dihydro-thiazol-4-yl]-propionic acid ethyl ester]",12,,
"O=C(O)CC[C@@H]1CSC(c2cc3cc(F)cc(NC4CCCC4)c3[nH]2)=N1 [Example 161, 3-[(R)-2-(7-cyclopentylamino-5-fluoro-1H-indol-2-yl)-4,5-dihydro-thiazol-4-yl]-propionic acid]",10,,
"CCOC(=O)CC[C@@H]1CSC(c2cc3cc(Br)cc(NC4CCCC4)c3[nH]2)=N1 [Example 162, 3-[(R)-2-(5-bromo-7-cyclopentylamino-1H-indol-2-yl)-4,5-dihydro-thiazol-4-yl]-propionic acid ethyl ester]",21,,
"O=C(O)CC[C@@H]1CSC(c2cc3cc(Br)cc(NC4CCCC4)c3[nH]2)=N1 [Example 163, 3-[(R)-2-(5-bromo-7-cyclopentylamino-1H-indol-2-yl)-4,5-dihydro-thiazol-4-yl]-propionic acid]",5,,
"COc1cc(NC2CCCC2)c2[nH]c(C3=N[C@H](CCC(=O)O)CS3)cc2c1 [Example 165, 3-[(R)-2-(7-cyclopentylamino-5-methoxy-1H-indol-2-yl)-4,5-dihydro-thiazol-4-yl]-propionic acid]",12,,
"CCOC(=O)CC[C@@H]1CSC(c2cc3cc(OCC)cc(NC4CCCC4)c3[nH]2)=N1 [Example 166, 3-[(R)-2-(7-cyclopentylamino-5-ethoxy-1H-indol-2-yl)-4,5-dihydro-thiazol-4-yl]-propionic acid ethyl ester]",43,,
"CCOC(=O)CC[C@@H]1CSC(c2cc3cc(OC(F)(F)F)cc(NC4CCCC4)c3[nH]2)=N1 [Example 168, 3-[(R)-2-(7-cyclopentylamino-5-trifluoromethoxy-1H-indol-2-yl)-4,5-dihydro-thiazol-4-yl]-propionic acid ethyl ester]",15,,
"O=C(O)CC[C@@H]1CSC(c2cc3cc(OC(F)(F)F)cc(NC4CCCC4)c3[nH]2)=N1 [Example 169, 3-[(R)-2-(7-cyclopentylamino-5-trifluoromethoxy-1H-indol-2-yl)-4,5-dihydro-thiazol-4-yl]-propionic acid]",9,,
"CCOC(=O)COC[C@@H]1CSC(c2cc3cc(F)cc(NC4CCCC4)c3[nH]2)=N1 [Example 170, [(R)-2-(7-cyclopentylamino-5-fluoro-1H-indol-2-yl)-4,5-dihydro-thiazol-4-ylmethoxy]-acetic acid ethyl ester]",12,,
"O=C(O)COC[C@@H]1CSC(c2cc3cc(F)cc(NC4CCCC4)c3[nH]2)=N1 [Example 171, [(R)-2-(7-cyclopentylamino-5-fluoro-1H-indol-2-yl)-4,5-dihydro-thiazol-4-ylmethoxy]-acetic acid]",23,,
"c1cc(NC2CCCC2)c2[nH]c(C3=N[C@H](Cc4nc(N5CCCCC5)no4)CS3)cc2c1 [Example 173, cyclopentyl-{2-[(R)-4-(3-piperidin-1-yl-[1,2,4]oxadiazol-5-ylmethyl)-4,5-dihydro-thiazol-2-yl]-1H-indol-7-yl}-amine]",114,,
"O=C(O)C[C@@H]1CSC(c2cc3cccc(Oc4ccccc4)c3[nH]2)=N1 [Example 174, [(R)-2-(7-phenoxy-1H-indol-2-yl)-4,5-dihydro-thiazol-4-yl]-acetic acid]",,51,
"CC(=O)N1CCN(CC[C@@H]2CSC(c3cc4cccc(Oc5ccccc5)c4[nH]3)=N2)CC1 [Example 175, 1-(4-{2-[(R)-2-(7-phenoxy-1H-indol-2-yl)-4,5-dihydro-thiazol-4-yl]-ethyl}-piperazin-1-yl)-ethanone]",71,,
"c1ccc(Oc2cccc3cc(C4=N[C@H](CCN5CCOCC5)CS4)[nH]c23)cc1 [Example 176, 2-[(R)-4-(2-morpholin-4-yl-ethyl)-4,5-dihydro-thiazol-2-yl]-7-phenoxy-1H-indole]",178,,
"CN(C)CC[C@@H]1CSC(c2cc3cccc(Oc4ccccc4)c3[nH]2)=N1 [Example 178, dimethyl-{2-[(R)-2-(7-phenoxy-1H-indol-2-yl)-4,5-dihydro-thiazol-4-yl]ethyl}-amine]",21,,
